Data from publication PMC8659243, “Design, Synthesis and Tumour-Selective Toxicity of Novel 1-[3-{3,5-Bis(benzylidene)-4-oxo-1-piperidino}-3-oxopropyl]-4-piperidone Oximes and Related Quaternary Ammonium Salts” (Molecules, 2021).
Where a name gives a salt, the structure may show the parent alone.

Tests used:
[1] = system: Ca9-22, HSC-2 and HSC-4 cells; test: Average over Ca9-22, HSC-2 and HSC-4 neoplastic cells; format: cell-based, human; details: for CC50: Homo sapiens, average of Ca9-22, HSC-2 and HSC-4, read-out: Average CC50; for Average SI: average of SI for Ca9-22, HSC-2 and HSC-4
Description: In order to assess whether the compounds in series 3 and 4 are more toxic to neoplasms than non-malignant cells, selective index (SI) figures were calculated. In the in vivo situation, a tumour is surrounded by a number of non-malignant cells.
In order to identify the most promising lead compounds in terms of both cytotoxic potencies and favourable SI values, potency–selectivity expression (PSE) values were computed. […] Outstanding results may be noted for four compounds that have PSE values in excess of 100,000 namely 3d, 4c–e. […] However, the relative SI/PSE distribution patterns between series 3 and 4 (from a to h) are nearly superimposable with each other (Figure 3). […] It has been reported that 3,5-bis(3-iodo-5-methoxy-4-propoxybenzylidene)-N-acetylpiperidin-4-one inhibited tubulin and destabilization of microtubules, while 3,5-bis(3,4,5-trimethoxybenzylidene)-N-benzoylpiperidin-4-one destabilizes the microtubules. Thus, it remained to investigate whether compound 4d acts as an inhibitor of the microtubule.
(§1) A literature procedure was followed when the compounds in series 3 and 4 were evaluated against three human oral squamous cell carcinoma cell lines Ca9-22 (RCB-1976), HSC-2 (RCB1945), HSC-4 (RCB1902) (purchased from RIKEN Cell Bank, Tukuba, Japan) and three human normal oral cells, gingival fibroblast (HGF), periodontal ligament fibroblast (HPLF) and pulp cells (HPC) (established according to the guideline of the intramural ethic committee, A0808) except the duration of incubation was increased from 24 h to 48 h. In brief, various concentrations of the compounds were added to the DMEM media, which was supplemented by 10% heat-inactivated fetal bovine serum. Incubation was undertaken at 37 °C. At the completion of the experiment, cell viability was determined by the MTT method.

[2] = Cytotoxicity against non-malignant HPLF cells, MTT method, 48 h; format: cell-based; details: human, periodontal ligament fibroblasts (HPLF)
Description: as §1

Ca9-22 cells = test: Cytotoxicity against Ca9-22 cells, MTT method, 48 h; format: cell-based, human; details: for CC50: Homo sapiens, Ca9-22, concentration required to kill 50% of the cells, 48 h, MTT, read-out: CC50 Ca9-22; for SI Ca9-22: average CC50 towards HGF, HPLF, HPC divided by CC50 against Ca9-22
Description: as §1

[3] = Average over HGF, HPLF and HPC non-malignant cells; format: cell-based; details: human, HPLF and HPC non-malignant cells (average of the three)
Description: as §1

[4] = system: CEM T-lymphoblastic leukemia cells; test: Cytotoxicity against CEM cells, MTT method, 24 h; format: cell-based; details: Homo sapiens, CCRF-CEM, concentration required to inhibit cell growth by 50%
Description: The method used for the evaluation of various compounds against human CEM cells has been reported previously. In brief, cells were grown in RPMI-1640 medium supplemented with 10% heat-inactivated fetal bovine serum. Different concentrations of compounds were added to the media, and after 24 h incubation, cytotoxicity was measured by the MTT method.

[5] = Cytotoxicity against non-malignant HGF cells, MTT method, 48 h; format: cell-based; details: human, gingival fibroblasts (HGF)
Description: as §1

HSC-4 cells = test: Cytotoxicity against HSC-4 cells, MTT method, 48 h; format: cell-based, human; details: for CC50: Homo sapiens, HSC-4, concentration required to kill 50% of the cells, 48 h, MTT, read-out: CC50 HSC-4; for SI HSC-4: average CC50 towards HGF, HPLF, HPC divided by CC50 against HSC-4
Description: as §1

HSC-2 cells = test: Cytotoxicity against HSC-2 cells, MTT method, 48 h; format: cell-based, human; details: for CC50: Homo sapiens, HSC-2, concentration required to kill 50% of the cells, 48 h, MTT; for SI HSC-2: average CC50 towards HGF, HPLF, HPC divided by CC50 against HSC-2
Description: as §1

[6] = Cytotoxicity against non-malignant HPC cells, MTT method, 48 h; format: cell-based; details: human, pulp cells (HPC)
Description: as §1

HCC-2998 cells = test: NCI in vitro screen, colon cancer HCC-2998; format: cell-based; details: Homo sapiens
Excerpt: (§2) One particular reference drug is 5-fluorouracil, which is used in treating colon cancers.

HT29 cells = test: NCI in vitro screen, colon cancer HT29; format: cell-based; details: Homo sapiens, HT-29
Excerpt: as §2

Colo205 cells = test: NCI in vitro screen, colon cancer Colo205; format: cell-based; details: Homo sapiens, COLO 205
Excerpt: as §2

RPMI-8226 cells = test: NCI in vitro screen, leukemia RPMI-8226; format: cell-based; details: Homo sapiens
Excerpt: (§3) In view of the encouraging result with CEM leukemic cells, consideration was given to an assessment in the NCI in vitro screening program. The oximes, but not the quaternary ammonium salts, were accepted for bioevaluation. Examination of the mean graphs confirms the sensitivity of leukemic cells to these compounds.

HL-60 (TB) cells = test: NCI in vitro screen, leukemia HL-60 (TB); format: cell-based; details: Homo sapiens
Excerpt: as §3

HCT-116 cells = test: NCI in vitro screen, colon cancer HCT-116; format: cell-based; details: Homo sapiens
Excerpt: as §2

leukemia cells = test: NCI in vitro screen, average of leukemia cells; format: cell-based; details: Homo sapiens
Excerpt: as §3

K-562 cells = test: NCI in vitro screen, leukemia K-562; format: cell-based; details: Homo sapiens, K562
Excerpt: as §3

HCT-15 cells = test: NCI in vitro screen, colon cancer HCT-15; format: cell-based; details: Homo sapiens
Excerpt: as §2

SW-620 cells = test: NCI in vitro screen, colon cancer SW-620; format: cell-based; details: Homo sapiens
Excerpt: as §2

SR cells = test: NCI in vitro screen, leukemia SR; format: cell-based; details: Homo sapiens
Excerpt: as §3

KM12 cells = test: NCI in vitro screen, colon cancer KM12; format: cell-based; details: Homo sapiens
Excerpt: as §2

All Cell Lines = test: NCI in vitro screen, all cell lines; format: cell-based; details: Homo sapiens
Excerpt: as §2

colon cancer cells = test: NCI in vitro screen, average of colon cancer cells; format: cell-based; details: Homo sapiens
Excerpt: as §2

Molt-4 cells = test: NCI in vitro screen, leukemia Molt-4; format: cell-based; details: Homo sapiens
Excerpt: as §3

| Structure (SMILES) | CC50 [1] [µM] | Average SI [1] | CC50 at 48 h [2] [µM] | CC50 (Ca9-22 cells) [µM] | SI Ca9-22 (Ca9-22 cells) | CC50 at 48 h [3] [µM] | IC50 [4] [µM] | CC50 at 48 h [5] [µM] | CC50 (HSC-4 cells) [µM] | SI HSC-4 (HSC-4 cells) | CC50 (HSC-2 cells) [µM] | SI HSC-2 (HSC-2 cells) | CC50 at 48 h [6] [µM] | also measured |
| --- | --- | --- | --- | --- | --- | --- | --- | --- | --- | --- | --- | --- | --- | --- |
| COc1ccc(/C=C2\CN(C(=O)CC[N+]3(C)CCC(=NO)CC3)C/C(=C\c3ccc(OC)cc3)C2=O)cc1 (stereo not drawn) [Compound 4g, (3~{E},5~{E})-3,5-bis[(4-methoxyphenyl)methylene]-1-[3-(4-hydroximino-1-piperidyl)propanoyl]piperidin-4-one methiodide] | 0.55 | 26.3 | 16.2 ± 4.05 | 0.31 ± 0.17 | 41.0 | 12.7 | 13 ± 0.95 | 6.3 ± 0.27 | 0.66 ± 0.05 | 19.2 | 0.68 ± 0.04 | 18.7 | 15.6 ± 3.16 | – |
| O=C1/C(=C/c2ccc(O)cc2)CN(C(=O)CCN2CCC(=NO)CC2)C/C1=C\c1ccc(O)cc1 [Compound 3i, (3~{E},5~{E})-3,5-bis[(4-hydroxyphenyl)methylene]-1-[3-(4-hydroximino-1-piperidyl)propanoyl]piperidin-4-one] | 17.9 | 4.71 | 88.3 ± 4.56 | 16.5 ± 2.35 | 5.10 | 84.2 | 11.1 ± 1.01 | 64.9 ± 5.66 | 19.3 ± 1.61 | 4.36 | 18 ± 2.06 | 4.68 | 99.3 ± 1.16 | – |
| COc1cccc2c1C(=O)c1c(O)c3c(c(O)c1C2=O)C[C@@](O)(C(=O)CO)C[C@@H]3O[C@H]1C[C@H](N)[C@H](O)[C@H](C)O1 [Doxorubicin, reference compound] | 0.24 | 43.6 | 9.73 ± 0.47 | 0.47 ± 0.12 | 15.6 | 7.31 | – | 3.44 ± 0.53 | 0.15 ± 0.05 | 48.7 | 0.11 ± 0.01 | 66.5 | 8.77 ± 2.14 | – |
| Cc1ccc(/C=C2\CN(C(=O)CCN3CCC(=NO)CC3)C/C(=C\c3ccc(C)cc3)C2=O)cc1 [Compound 3f, (3~{E},5~{E})-3,5-bis[(4-methylphenyl)methylene]-1-[3-(4-hydroximino-1-piperidyl)propanoyl]piperidin-4-one hydrochloride] | 0.55 | 13.9 | 8 ± 0.2 | 0.47 ± 0.04 | 15.3 | 7.18 | 8.42 ± 1.1 | 5.7 ± 0.65 | 0.43 ± 0.12 | 16.7 | 0.75 ± 0.04 | 9.57 | 7.85 ± 7.1 | IC50 (HCC-2998 cells): 1.58 µM; IC50 (HT29 cells): 0.35 µM; IC50 (Colo205 cells): 1.15 µM; IC50 (RPMI-8226 cells): 0.3 µM; IC50 (HL-60 (TB) cells): 1.7 µM; IC50 (HCT-116 cells): 0.36 µM; IC50 (leukemia cells): 0.55 µM; IC50 (K-562 cells): 0.32 µM; IC50 (HCT-15 cells): 0.55 µM; IC50 (SW-620 cells): 0.29 µM; IC50 (SR cells): 0.31 µM; IC50 (KM12 cells): 0.28 µM; IC50 (All Cell Lines): 1.23 µM; IC50 (colon cancer cells): 0.65 µM; IC50 (Molt-4 cells): 0.37 µM |
